Active and inactive are the calls of the source. The rule behind the calls is not given here.
How the values were obtained:
MCF7 [1] = experiment: Inhibition of cell invasion of human MCF7 cells at 10 to 50 uM by Matrigel-coated transwell based assay; assay type: functional
[2] = molecular target: Intersectin-1 (Homo sapiens) (UniProt Q15811); experiment: Binding affinity to GST-tagged human intersectin-1 RhoGEF at 1 to 100000 nM by microscale thermophoresis analysis
MCF7 [3] = experiment: Inhibition of RhoGEF in human MCF7 cells derived mammospheres assessed as inhibition of RhoA-mediated phospho-MLC formation at 10 uM incubated for 24 hrs by densitometry; assay type: cell-based
Mus musculus [4] = species on record: Mus musculus; experiment: Inhibition of RhoGEF in mouse NIH/3T3 cells assessed as inhibition of 10% calf serum-induced RhoA-GTP formation by measuring relative RhoA-GTP level at 50 uM in presence of 50 uM Rhosin/G04 incubated for 24 hrs by densitometry (reference value: 1); assay type: cell-based
MCF7 [5] = experiment: Growth inhibition of human MCF7 cells at 5 to 50 uM; assay type: functional, cell-based
MCF7 [6] = experiment: Inhibition of mammospheres formation in human MCF7 cells at 2.5 to 15 uM in presence of 2.5 to 15 uM Rhosin/G04 incubated for 10 days; assay type: functional, cell-based
[7] = molecular target: T1, RhoGEF 1/Transforming protein RhoA (Homo sapiens) (UniProt P61586+Q92888); experiment: (§1) Binding affinity to human LARG (765 to 1138 residues) DH-PH module expressed in mouse NIH/3T3 cells assessed as reduction in LARG binding to human full length RhoA (1 to 193 residues) by measuring relative LARG binding level at 15 uM in presence of 15 uM Rhosin/G04 pull-down assay (reference value: 1 No unit); assay type: cell-based
[8] = molecular target: T1, RhoGEF 1/Transforming protein RhoA (Homo sapiens); experiment: as §1, with “5” for “15”; assay type: cell-based
[9] = molecular target: Rho guanine nucleotide exchange factor 12 (Homo sapiens, UniProt Q9NZN5, V1099A); experiment: Binding affinity to recombinant human LARG (765 to 1138 residues) V1099A mutant by microscale thermophoresis analysis
Chain of Rho guanine nucleotide exchange factor 12 (Homo sapiens, UniProt Q9NZN5, V1099A) (Q9NZN5 2-1544 V1099A limits assumed): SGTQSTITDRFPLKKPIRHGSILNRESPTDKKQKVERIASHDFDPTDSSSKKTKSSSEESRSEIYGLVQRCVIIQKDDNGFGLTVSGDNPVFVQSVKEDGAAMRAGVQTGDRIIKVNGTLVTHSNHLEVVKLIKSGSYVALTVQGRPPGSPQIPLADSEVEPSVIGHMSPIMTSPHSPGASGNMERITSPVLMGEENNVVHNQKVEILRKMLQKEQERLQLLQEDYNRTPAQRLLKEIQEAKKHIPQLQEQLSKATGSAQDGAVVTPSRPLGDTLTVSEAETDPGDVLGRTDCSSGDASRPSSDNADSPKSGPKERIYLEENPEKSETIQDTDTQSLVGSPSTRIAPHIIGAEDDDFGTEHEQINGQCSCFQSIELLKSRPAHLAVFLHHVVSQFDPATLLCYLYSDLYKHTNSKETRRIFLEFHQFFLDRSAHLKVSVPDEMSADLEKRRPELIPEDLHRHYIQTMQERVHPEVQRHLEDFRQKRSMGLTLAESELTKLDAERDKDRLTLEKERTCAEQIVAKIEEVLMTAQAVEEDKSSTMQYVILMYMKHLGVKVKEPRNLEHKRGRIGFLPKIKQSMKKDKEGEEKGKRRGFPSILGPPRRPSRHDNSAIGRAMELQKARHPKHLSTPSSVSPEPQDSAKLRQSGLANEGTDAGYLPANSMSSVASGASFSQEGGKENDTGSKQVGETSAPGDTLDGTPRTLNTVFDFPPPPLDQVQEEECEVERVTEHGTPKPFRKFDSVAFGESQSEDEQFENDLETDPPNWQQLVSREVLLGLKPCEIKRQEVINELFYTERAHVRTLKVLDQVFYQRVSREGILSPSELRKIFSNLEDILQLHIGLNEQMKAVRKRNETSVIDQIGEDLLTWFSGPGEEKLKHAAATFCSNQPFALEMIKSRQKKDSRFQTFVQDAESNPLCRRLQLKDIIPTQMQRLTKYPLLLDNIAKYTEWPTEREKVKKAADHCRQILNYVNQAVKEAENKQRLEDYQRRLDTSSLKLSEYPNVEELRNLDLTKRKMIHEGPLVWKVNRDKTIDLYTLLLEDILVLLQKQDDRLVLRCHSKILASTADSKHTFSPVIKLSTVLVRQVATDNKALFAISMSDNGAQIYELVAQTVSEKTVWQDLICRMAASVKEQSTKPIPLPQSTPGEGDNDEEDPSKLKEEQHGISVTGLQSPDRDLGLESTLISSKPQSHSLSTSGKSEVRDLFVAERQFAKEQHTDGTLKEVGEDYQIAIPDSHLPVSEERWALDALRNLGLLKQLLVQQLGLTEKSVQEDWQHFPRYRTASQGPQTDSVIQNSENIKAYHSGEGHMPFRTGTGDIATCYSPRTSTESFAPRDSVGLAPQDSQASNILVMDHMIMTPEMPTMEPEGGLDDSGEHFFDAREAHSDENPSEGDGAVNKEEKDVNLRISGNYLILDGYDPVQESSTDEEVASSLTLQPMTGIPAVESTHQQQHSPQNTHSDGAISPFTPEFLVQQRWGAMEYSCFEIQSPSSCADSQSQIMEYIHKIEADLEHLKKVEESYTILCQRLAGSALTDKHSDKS

[10] = molecular target: T1, RhoGEF 1/Transforming protein RhoA (Homo sapiens); experiment: Binding affinity to human LARG (765 to 1138 residues) DH-PH module expressed in mouse NIH/3T3 cells assessed as reduction in LARG binding to human full length RhoA (1 to 193 residues) by measuring relative LARG binding level at 30 uM pull-down assay (reference value: 1 No unit); assay type: cell-based
Mus musculus [11] = species on record: Mus musculus; experiment: Inhibition of RhoGEF in mouse NIH/3T3 cells assessed as reduction in 10% calf serum-induced rhoA-mediated actin stress fiber formation at 10 uM by rhodamine-phalloidin staining based assay; assay type: cell-based
Homo sapiens [12] = species on record: Homo sapiens; experiment: Inhibition of GST-tagged human TrioN RhoGEF (1284 to 1711 residues) expressed in mouse NIH/3T3 cells assessed as reduction in human full length Rac1 (1 to 192 residues) interaction with TrioN RhoGEF at 50 to 200 uM incubated for 1 hr by Western blot analysis based pull-down assay; assay type: cell-based
MCF7 [13] = experiment: Inhibition of RhoGEF in human MCF7 cells derived mammospheres assessed as inhibition of 10% calf serum-induced RhoA-GTP formation at 2.5 uM in presence of 2.5 uM Rhosin/G04 incubated for 24 hrs by densitometry relative to control; assay type: cell-based
MCF7 [14] = experiment: Inhibition of RhoGEF in human MCF7 cells derived mammospheres assessed as inhibition of 10% calf serum-induced RhoA-GTP formation by measuring relative RhoA-GTP level at 30 uM incubated for 24 hrs by densitometry (reference value: 1); assay type: cell-based
Homo sapiens [15] = species on record: Homo sapiens; experiment: Inhibition of GST-tagged human TrioN (1284 to 1711 residues) RhoGEF-catalyzed guanine nucleotide-exchange reaction of human full length Rac1 (1 to 192 residues) by measuring inhibition of the GDP dissociation from Rac1 at 0.76 to 250000 nM by Alexa 647 fluorescence dye based GDP/GTP exchange assay
[16] = molecular target: T1, RhoGEF 1/Transforming protein RhoA (Homo sapiens); experiment: Binding affinity to human LARG (765 to 1138 residues) DH-PH module expressed in mouse NIH/3T3 cells assessed as reduction in LARG binding to human full length RhoA (1 to 193 residues) by measuring relative LARG binding level at 10 uM pull-down assay (reference value: 1 No unit); assay type: cell-based
[17] = molecular target: Rho guanine nucleotide exchange factor 12 (Homo sapiens, UniProt Q9NZN5); experiment: Inhibition of human LARG (765 to 1138 residues) RhoGEF-catalyzed guanine nucleotide-exchange reaction of human full length RhoA (1 to 193 residues) by measuring inhibition of the GDP dissociation from RhoA by Alexa 647 fluorescence dye based GDP/GTP exchange assay
Chain of Rho guanine nucleotide exchange factor 12 (Homo sapiens, UniProt Q9NZN5) (Q9NZN5 whole entry, the tested form may be a part): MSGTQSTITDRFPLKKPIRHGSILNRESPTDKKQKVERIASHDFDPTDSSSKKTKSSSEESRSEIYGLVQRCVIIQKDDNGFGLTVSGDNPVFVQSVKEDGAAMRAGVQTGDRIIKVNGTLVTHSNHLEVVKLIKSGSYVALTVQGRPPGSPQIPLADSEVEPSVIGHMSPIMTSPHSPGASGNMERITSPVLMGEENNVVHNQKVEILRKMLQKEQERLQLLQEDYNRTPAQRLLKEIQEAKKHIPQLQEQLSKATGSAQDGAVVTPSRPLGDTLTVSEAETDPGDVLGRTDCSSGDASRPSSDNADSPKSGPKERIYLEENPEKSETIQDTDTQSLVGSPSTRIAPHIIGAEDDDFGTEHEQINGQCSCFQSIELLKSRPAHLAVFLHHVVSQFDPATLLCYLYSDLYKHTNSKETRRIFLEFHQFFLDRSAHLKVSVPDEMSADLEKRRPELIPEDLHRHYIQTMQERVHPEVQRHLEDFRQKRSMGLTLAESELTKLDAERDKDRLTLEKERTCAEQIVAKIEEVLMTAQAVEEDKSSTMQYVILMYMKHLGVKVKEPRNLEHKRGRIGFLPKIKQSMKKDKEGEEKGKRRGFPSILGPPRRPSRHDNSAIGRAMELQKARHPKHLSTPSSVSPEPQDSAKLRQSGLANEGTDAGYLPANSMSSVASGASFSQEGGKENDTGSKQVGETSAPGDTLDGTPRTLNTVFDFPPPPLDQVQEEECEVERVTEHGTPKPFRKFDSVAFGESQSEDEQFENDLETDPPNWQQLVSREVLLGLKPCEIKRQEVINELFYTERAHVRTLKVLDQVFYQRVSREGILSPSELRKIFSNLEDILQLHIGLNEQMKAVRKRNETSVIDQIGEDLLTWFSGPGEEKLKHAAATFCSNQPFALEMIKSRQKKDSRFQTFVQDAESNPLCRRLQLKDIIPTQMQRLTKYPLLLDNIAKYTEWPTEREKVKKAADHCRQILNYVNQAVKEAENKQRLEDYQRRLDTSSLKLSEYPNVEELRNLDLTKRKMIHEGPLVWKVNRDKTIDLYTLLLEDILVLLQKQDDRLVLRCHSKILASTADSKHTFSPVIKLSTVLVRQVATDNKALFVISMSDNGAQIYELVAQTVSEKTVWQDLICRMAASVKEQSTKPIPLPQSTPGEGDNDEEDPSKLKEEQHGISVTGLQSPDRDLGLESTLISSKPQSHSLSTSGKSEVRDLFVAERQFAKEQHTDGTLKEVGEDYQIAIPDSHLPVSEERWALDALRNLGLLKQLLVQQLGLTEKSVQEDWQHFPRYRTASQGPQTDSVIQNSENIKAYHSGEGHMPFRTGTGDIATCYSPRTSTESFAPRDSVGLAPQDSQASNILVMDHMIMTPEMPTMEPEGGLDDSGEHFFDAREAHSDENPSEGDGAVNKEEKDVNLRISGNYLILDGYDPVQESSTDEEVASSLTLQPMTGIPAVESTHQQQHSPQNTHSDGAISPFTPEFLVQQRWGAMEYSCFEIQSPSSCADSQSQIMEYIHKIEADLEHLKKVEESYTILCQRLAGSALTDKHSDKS

Mus musculus [18] = species on record: Mus musculus; experiment: Inhibition of RhoGEF in mouse NIH/3T3 cells assessed as inhibition of 10% calf serum-induced RhoA-GTP formation by measuring relative RhoA-GTP level at 10 uM incubated for 24 hrs by densitometry (reference value: 1); assay type: cell-based
Mus musculus [19] = species on record: Mus musculus; experiment: Inhibition of RhoGEF in mouse NIH/3T3 cells assessed as inhibition of 10% calf serum-induced RhoA-GTP formation by measuring RhoA-GTP level at 30 uM incubated for 24 hrs by densitometry relative to control (reference value: 2.15); assay type: cell-based
Mus musculus [20] = species on record: Mus musculus; experiment: Inhibition of RhoGEF-mediated RhoA signaling in mouse NIH/3T3 cells assessed as reduction in 10% calf serum-induced stress fiber and focal complex formation 30 uM incubated for 24 hrs; assay type: cell-based
Mus musculus [21] = species on record: Mus musculus; experiment: Inhibition of RhoGEF in mouse NIH/3T3 cells assessed as inhibition of 10% calf serum-induced RhoA-GTP formation by measuring reduction in RhoA-GTP level at 2.5 uM in presence of 2.5 uM Rhosin/G04 incubated for 24 hrs by densitometry relative to control; assay type: cell-based
Mus musculus [22] = species on record: Mus musculus; experiment: Inhibition of RhoGEF in mouse NIH/3T3 cells assessed as inhibition of 10% calf serum-induced RhoA-GTP formation by measuring relative RhoA-GTP level at 15 uM in presence of 15 uM Rhosin/G04 incubated for 24 hrs by densitometry (reference value: 1); assay type: cell-based
Mus musculus [23] = species on record: Mus musculus; experiment: Inhibition of RhoGEF in mouse NIH/3T3 cells assessed as inhibition of 10% calf serum-induced Cdc42-GTP formation by measuring Cdc42-GTP level at 30 uM incubated for 24 hrs by densitometry relative to control (reference value: 3.25); assay type: cell-based
MCF7 [24] = experiment: Growth inhibition of human MCF7 cells at 2.5 to 15 uM in presence of 2.5 to 15 uM Rhosin/G04; assay type: functional, cell-based
MCF7 [25] = experiment: Inhibition of RhoGEF in human MCF7 cells derived mammospheres assessed as inhibition of 10% calf serum-induced RhoA-GTP formation by measuring relative RhoA-GTP level at 10 uM incubated for 24 hrs by densitometry (reference value: 1); assay type: cell-based
[26] = molecular target: Triple functional domain protein (Homo sapiens, UniProt O75962); experiment: Binding affinity to GST-tagged human TrioN RhoGEF (1284 to 1711 residues) by microscale thermophoresis analysis
Mus musculus [27] = species on record: Mus musculus; experiment: Inhibition of RhoGEF-mediated Rac1 signaling in mouse NIH/3T3 cells assessed as reduction in PDGF-stimulated Rac1-mediated lamellipodia formation at 10 to 30 uM; assay type: cell-based

Chain of Intersectin-1 (Homo sapiens) (Q15811 whole entry): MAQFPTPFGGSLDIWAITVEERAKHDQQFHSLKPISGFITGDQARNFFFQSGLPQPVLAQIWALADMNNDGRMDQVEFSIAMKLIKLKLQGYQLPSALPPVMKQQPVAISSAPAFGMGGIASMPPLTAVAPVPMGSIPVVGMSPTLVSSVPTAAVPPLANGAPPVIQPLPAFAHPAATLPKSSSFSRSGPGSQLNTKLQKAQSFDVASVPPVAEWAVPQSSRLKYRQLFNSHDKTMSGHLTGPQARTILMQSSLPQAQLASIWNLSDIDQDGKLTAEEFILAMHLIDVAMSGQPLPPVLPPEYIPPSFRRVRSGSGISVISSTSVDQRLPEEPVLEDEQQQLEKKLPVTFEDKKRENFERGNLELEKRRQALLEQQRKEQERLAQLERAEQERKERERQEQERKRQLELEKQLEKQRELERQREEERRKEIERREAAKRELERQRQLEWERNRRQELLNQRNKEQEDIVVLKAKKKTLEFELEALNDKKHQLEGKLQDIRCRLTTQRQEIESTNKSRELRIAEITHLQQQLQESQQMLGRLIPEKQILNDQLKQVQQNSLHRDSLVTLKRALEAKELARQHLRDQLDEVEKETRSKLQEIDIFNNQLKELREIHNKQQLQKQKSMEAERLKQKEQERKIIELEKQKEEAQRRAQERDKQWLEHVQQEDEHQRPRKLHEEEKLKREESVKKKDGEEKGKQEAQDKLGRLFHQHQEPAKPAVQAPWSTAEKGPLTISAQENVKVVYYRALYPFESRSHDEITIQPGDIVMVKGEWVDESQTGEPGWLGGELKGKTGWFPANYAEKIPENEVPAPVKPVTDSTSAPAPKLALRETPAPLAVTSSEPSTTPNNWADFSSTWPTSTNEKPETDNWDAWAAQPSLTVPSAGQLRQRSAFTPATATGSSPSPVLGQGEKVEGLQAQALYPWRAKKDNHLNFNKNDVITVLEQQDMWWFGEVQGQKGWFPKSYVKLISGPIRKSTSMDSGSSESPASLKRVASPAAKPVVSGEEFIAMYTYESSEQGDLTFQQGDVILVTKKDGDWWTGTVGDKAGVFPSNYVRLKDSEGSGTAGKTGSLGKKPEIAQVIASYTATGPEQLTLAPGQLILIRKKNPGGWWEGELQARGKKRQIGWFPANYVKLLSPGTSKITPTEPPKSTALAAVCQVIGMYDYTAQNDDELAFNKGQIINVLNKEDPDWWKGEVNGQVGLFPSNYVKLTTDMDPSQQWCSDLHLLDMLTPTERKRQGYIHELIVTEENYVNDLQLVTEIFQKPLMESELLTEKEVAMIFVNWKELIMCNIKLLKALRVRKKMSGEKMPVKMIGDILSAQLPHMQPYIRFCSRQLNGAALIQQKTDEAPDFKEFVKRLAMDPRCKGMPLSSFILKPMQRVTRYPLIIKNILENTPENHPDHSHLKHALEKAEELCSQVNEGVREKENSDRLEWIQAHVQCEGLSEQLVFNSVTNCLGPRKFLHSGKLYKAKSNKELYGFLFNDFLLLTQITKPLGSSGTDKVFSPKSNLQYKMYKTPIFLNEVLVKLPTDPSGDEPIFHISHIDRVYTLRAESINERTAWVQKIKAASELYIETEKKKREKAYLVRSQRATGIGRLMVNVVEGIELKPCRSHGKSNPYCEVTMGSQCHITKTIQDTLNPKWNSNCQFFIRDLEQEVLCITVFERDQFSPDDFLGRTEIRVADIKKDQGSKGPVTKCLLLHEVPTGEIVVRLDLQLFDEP

Activity [2]: inactive | fold change (FC) [7]: 0.03 | fold change (FC) [8]: 0.28 | Kd [9]: 0.079 µM | fold change (FC) [10]: 0.57 | inhibition (Homo sapiens [15]): inactive | fold change (FC) [16]: 0.61 | inhibition [17]: Dose-dependent effect | Kd [26]: 774 µM
Structure (SMILES): Cc1cccc(COc2cccc(/C=C3\C(=O)NN(c4ccccc4)C3=O)c2)c1
inhibition (MCF7 [1]): Active | inhibition (MCF7 [3]): 50% | fold change (FC) (Mus musculus [4]): 0 | growth inhibition (GI) (MCF7 [5]): Active | inhibition (MCF7 [6]): Active | inhibition (Mus musculus [11]): Active | inhibition (Homo sapiens [12]): inactive | inhibition (MCF7 [13]): 70% | fold change (FC) (MCF7 [14]): 0.15 | fold change (FC) (Mus musculus [18]): 0.8 | fold change (FC) (Mus musculus [19]): 0.87 | inhibition (Mus musculus [20]): Active | inhibition (Mus musculus [21]): 50% | fold change (FC) (Mus musculus [22]): 0.25 | fold change (FC) (Mus musculus [23]): 2.11 | growth inhibition (GI) (MCF7 [24]): Active | fold change (FC) (MCF7 [25]): 0.4 | inhibition (Mus musculus [27]): inactive
